# Test results from US6756384B2, “Imidazole compounds” (Novo Nordisk A/S, priority 2000, dated 2004).
# Counter-ions that a name gives are not always drawn.
row,SMILES,melting point [°C]
1,Cl.O=C(Cc1ccc(Cl)cc1)NC1CCc2[nH]cnc2C1 (centres unmarked),222 to 224
2,"O=C(NCCc1ccccc1)C1CCCc2[nH]cnc21 (centres unmarked) (as salt: hydrochloride) [Example 91, 4,5,6,7-Tetrahydro-1H-benzimidazole-4-carboxylic acid phenethylamide]",177 to 179
3,C[C@@H](NC(=O)C1CCc2[nH]cnc2C1)c1cccc2ccccc12.Cl (some centres unmarked),84 to 85
4,C[C@H](NC(=O)C1CCc2[nH]cnc2C1)c1cccc2ccccc12 (some centres unmarked) [Example 1],158 to 160
5,"O=C(NCc1c(Cl)cccc1Oc1ccccc1)C1CCc2[nH]cnc2C1 (centres unmarked) [Example 22, 4,5,6,7-Tetrahydro-1H-benzimidazole-5-carboxylic Acid N-(2-Chloro-6-phenoxy-benzyl)amide]",197 to 199
6,"CN(Cc1ccccc1)C(=O)C1CCCc2[nH]cnc21 (centres unmarked) (as salt: hydrochloride) [Example 90, 4,5,6,7-Tetrahydro-1H-benzimidazole-4-carboxylic acid benzylmethylamide]",211 to 213

# Next, values leading:
row,melting point [°C],SMILES
1,130 to 132,O=C(NCc1ccccc1)C1CCc2[nH]cnc2C1.O=C(O)C(=O)O (centres unmarked)
2,142 to 144,Cl.O=C(NCc1cccc2ccccc12)C1CCc2[nH]cnc2C1 (centres unmarked)
3,146 to 148,Cl.O=C(NCCCc1ccc(Cl)cc1)C1CCc2[nH]cnc2C1 (centres unmarked)
4,197 to 199,O=C(NCCc1ccccc1)C1CCc2[nH]cnc2C1.O=C(O)C(=O)O (centres unmarked)
5,165 to 167,"O=C(NCc1ccccc1Cl)C1CCCc2[nH]cnc21 (centres unmarked) (as salt: hydrochloride) [Example 89, 4,5,6,7-Tetrahydro-1H-benzimidazole-4-carboxylic acid 2-chlorobenzylamide]"
